Laboratory results as given in US20260083865A1, “PROSTATE SPECIFIC MEMBRANE ANTIGEN (PSMA) LIGANDS AND USE THEREOF” (priority 2022, published 2026).
Like-named read-outs stand apart in the source and are kept apart here. Numbered stars: 1 amine (or outer) side, 2 acyl side, 3 side chain; on linkers, the order of the positions; unused ones are H or OH. Bridge positions count the residues as written; N and C are the ends. Square brackets hold non-standard residues; d marks the D form. Peptide text beside a SMILES is read from it. * marks the point of attachment. DOTA = O=C(O)CN1CCN(CC(=O)O)CCN(CC(=O)*)CCN(CC(=O)O)CC1; Trp(6-Cl) = N[C@@H](Cc1c[nH]c2cc(Cl)ccc12)C(=O)O; Phe(4-Cl) = N[C@@H](Cc1ccc(Cl)cc1)C(=O)O; Arg(Me) = CNC(=N)NCCC[C@H](N)C(=O)O; X1 = O=C(CC1CCN([*:1])CC1)[*:2]; Lys(Me) = CNCCCC[C@H](N)C(=O)O; Tle = CC(C)(C)[C@H](N)C(=O)O; 4Abz = Nc1ccc(C(=O)O)cc1; Nle = CCCC[C@H](N)C(=O)O; Aib = CC(C)(N)C(=O)O

Tests used:
[1] = target: T1, PSMA-expressing C4-2 cells (Homo sapiens, UniProt Q04609); assay: FACS binding assay (competition with 50 nM PSM-0183); conditions: C4-2 cells, read-out: pIC50 [C4-2] CAT (converted)
T1 construct: PSMA-expressing C4-2 cells (ATCC, Cat. No. CRL-3314) were cultured in RPMI-1640; host or cells: C4-2 cells
Procedure, shortened: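 C4-2 cells were incubated 1 h at 4 °C with 50 nM AF488-labelled peptide PSM-0183 plus increasing test compound concentrations, then washed twice in ice-cold buffer. Median fluorescence in the AF488 channel was read by flow cytometry. IC50/pIC50 was derived by 4PL fitting of MFI versus concentration.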

[2] = target: T2, Fc-fusion protein of human PSMA (hPSMA-Fc) (Homo sapiens, UniProt Q04609); assay: Surface plasmon resonance assay (Biacore T200, single cycle kinetic); type: binding; conditions: read-out: pKD CAT (converted)
T2 construct: purchased Acro Biosystems PSA-H5264
Procedure, shortened: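 hPSMA-Fc was captured (~1000 RU) on an Fc-binding-peptide CM5 chip, and compounds were run in single cycle kinetic mode at 25° C in HBST with 0.1% DMSO. Double-blank-corrected sensorgrams were fitted to a 1:1 Langmuir model to give KD, reported as pKD.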

[3] = FACS binding, competition with 50 nM PSM-0183, category
[4] = SPR, hPSMA-Fc, single cycle kinetic, 25° C., category
[5] = pKD category for PSMA SPR activity assay, hPSMA-Fc, 25° C.

T1 sequence (Q04609 whole entry): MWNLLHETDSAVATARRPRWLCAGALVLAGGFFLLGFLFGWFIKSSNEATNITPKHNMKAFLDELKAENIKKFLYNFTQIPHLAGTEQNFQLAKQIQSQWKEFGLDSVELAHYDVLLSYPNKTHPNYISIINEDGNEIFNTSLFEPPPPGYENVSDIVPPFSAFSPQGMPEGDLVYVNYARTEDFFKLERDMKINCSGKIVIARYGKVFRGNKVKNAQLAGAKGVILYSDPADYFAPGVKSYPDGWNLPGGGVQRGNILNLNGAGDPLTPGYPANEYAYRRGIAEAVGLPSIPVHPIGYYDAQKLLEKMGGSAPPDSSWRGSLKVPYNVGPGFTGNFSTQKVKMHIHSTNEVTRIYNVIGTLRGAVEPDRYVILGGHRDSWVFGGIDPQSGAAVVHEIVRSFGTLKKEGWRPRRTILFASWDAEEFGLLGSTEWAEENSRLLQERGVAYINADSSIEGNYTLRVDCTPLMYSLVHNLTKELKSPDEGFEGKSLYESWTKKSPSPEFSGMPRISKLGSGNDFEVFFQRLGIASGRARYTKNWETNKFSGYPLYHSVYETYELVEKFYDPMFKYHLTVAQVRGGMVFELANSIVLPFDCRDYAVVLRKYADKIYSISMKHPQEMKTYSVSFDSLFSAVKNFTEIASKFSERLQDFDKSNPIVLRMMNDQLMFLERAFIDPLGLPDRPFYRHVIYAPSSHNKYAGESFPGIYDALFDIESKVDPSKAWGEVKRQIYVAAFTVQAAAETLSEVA
T2 sequence (Q04609 44-750 limits assumed): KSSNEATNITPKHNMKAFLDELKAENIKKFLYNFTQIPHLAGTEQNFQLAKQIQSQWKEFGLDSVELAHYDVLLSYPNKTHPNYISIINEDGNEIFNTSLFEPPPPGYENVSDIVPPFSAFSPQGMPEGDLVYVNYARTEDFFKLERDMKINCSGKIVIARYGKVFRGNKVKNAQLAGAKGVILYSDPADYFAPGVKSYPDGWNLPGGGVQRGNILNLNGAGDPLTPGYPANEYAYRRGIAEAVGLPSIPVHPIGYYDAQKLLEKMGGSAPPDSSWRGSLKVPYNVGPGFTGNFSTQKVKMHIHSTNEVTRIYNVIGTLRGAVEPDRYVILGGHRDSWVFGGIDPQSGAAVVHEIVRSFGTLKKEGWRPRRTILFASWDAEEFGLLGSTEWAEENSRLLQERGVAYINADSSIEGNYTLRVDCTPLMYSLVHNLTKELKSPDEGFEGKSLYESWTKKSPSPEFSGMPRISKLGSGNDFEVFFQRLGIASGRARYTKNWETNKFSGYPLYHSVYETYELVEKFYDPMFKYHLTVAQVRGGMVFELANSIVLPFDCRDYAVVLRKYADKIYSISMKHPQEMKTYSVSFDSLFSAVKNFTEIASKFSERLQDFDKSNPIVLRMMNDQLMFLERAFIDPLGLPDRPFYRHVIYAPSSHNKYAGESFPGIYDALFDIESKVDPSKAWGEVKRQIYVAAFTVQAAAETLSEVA

| Structure (SMILES) | IC50 ([1]; pIC50 category of FACS binding) [nM] | Kd [2, 5] [nM] | other results |
| --- | --- | --- | --- |
| CC(=O)N[C@H](C(=O)NC(C)(C)C(=O)N[C@@H](Cc1ccccc1)C(=O)N[C@H]1CSSC[C@@H](C(=O)N[C@H](C(=O)N[C@@H](CCC(=O)O)C(N)=O)C(C)(C)C)NC(=O)[C@H](CC(N)=O)NC(=O)C(C)(C)NC(=O)[C@H](CCCNC(=N)N)NC(=O)[C@H](CCCCN)NC1=O)[C@@H](C)O [PSM-0262, Ac-Thr-Aib-Phe-[Cys-Lys-Arg-Aib-Asn-Cys]-Tle-Glu-NH2] (Ac-T[Aib]FCKR[Aib]NC[Tle]E-NH2; disulfide 4-9) | – | – | IC50 [1, 3]: < 200 nM; Kd [2, 4]: < 12.6 nM |
| CCCC[C@H](NC(=O)[C@@H]1CSSC[C@H](NC(=O)[C@H](C)NC(=O)[C@H](C)NC(=O)[C@@H](NC(C)=O)[C@@H](C)O)C(=O)N[C@@H](CCCCN)C(=O)N[C@@H](CCCNC(=N)N)C(=O)N[C@@H](C)C(=O)N[C@@H](CC(N)=O)C(=O)N1)C(=O)N[C@H](C(=O)N[C@@H](CC(=O)O)C(N)=O)[C@@H](C)O [PSM-0586, Ac-Thr-Ala-Ala-[Cys-Lys-Arg-Ala-Asn-Cys]-Nle-Thr-Asp-NH2] (Ac-TAACKRANC[Nle]TD-NH2; disulfide 4-9) | – | – | IC50 ([1]; FACS binding, category): > 3160 nM; Kd ([2]; PSMA SPR assay, category): > 501 nM |
| CNCCCC[C@@H]1NC(=O)[C@@H](NC(=O)[C@H](Cc2ccc(Cl)cc2)NC(=O)C(C)(C)NC(=O)[C@@H](NC(=O)CC2CCN(C(=O)CN3CCN(CC(=O)O)CCN(CC(=O)O)CCN(CC(=O)O)CC3)CC2)[C@@H](C)O)CSSC[C@@H](C(=O)N[C@H](C(N)=O)C(C)(C)C)NC(=O)[C@H](CC(N)=O)NC(=O)C(C)(C)NC(=O)[C@H](CCCNC(=N)N)NC1=O [PSM-0200, DOTA-Cmp-Thr-Aib-Pcf-[Cys-Lys(Me)-Arg-Aib-Asn-Cys]-Tle-NH2] ({DOTA}-[X1]T[Aib][Phe(4-Cl)]C[Lys(Me)]R[Aib]NC[Tle]-NH2; disulfide 5-10) | – | – | IC50 [1, 3]: < 200 nM; Kd [2, 4]: < 12.6 nM |
| CC(=O)N[C@H](C(=O)NC(C)(C)C(=O)N[C@@H](Cc1ccccc1)C(=O)N[C@H]1CSSC[C@@H](C(=O)N[C@H](C(=O)N[C@H](C(=O)Nc2ccc(C(=O)N[C@H](CCCCNC(=O)CN3CCN(CC(=O)O)CCN(CC(=O)O)CCN(CC(=O)O)CC3)C(N)=O)cc2)[C@@H](C)O)C(C)(C)C)NC(=O)[C@H](CC(N)=O)NC(=O)C(C)(C)NC(=O)[C@H](CCCNC(=N)N)NC(=O)[C@H](CCCCN)NC1=O)[C@@H](C)O [PSM-0471, Ac-Thr-Aib-Phe-[Cys-Lys-Arg-Aib-Asn-Cys]-Tle-Thr-Pab-lys(DOTA)-NH2] (Ac-T[Aib]FCKR[Aib]NC[Tle]T[4Abz][dK](DOTA)-NH2; disulfide 4-9) | < 200 | < 12.6 | – |

The next lines start with results.

| IC50 ([1]; pIC50 category of FACS binding) [nM] | Kd [2, 5] [nM] | Structure (SMILES) | other results |
| --- | --- | --- | --- |
| < 200 | < 12.6 | CNCCCC[C@@H]1NC(=O)[C@@H](NC(=O)[C@H](Cc2c[nH]c3cc(Cl)ccc23)NC(=O)C(C)(C)NC(=O)[C@@H](NC(=O)CC2CCN(C(=O)CN3CCN(CC(=O)O)CCN(CC(=O)O)CCN(CC(=O)O)CC3)CC2)[C@@H](C)O)CSSC[C@@H](C(=O)N[C@H](C(N)=O)C(C)(C)C)NC(=O)[C@H](CC(N)=O)NC(=O)C(C)(C)NC(=O)[C@H](CCCNC(=N)NC)NC1=O [PSM-0390, DOTA-Cmp-Tle-Aib-6Clw-[Cys-Lys(Me)-Arg(Me)-Aib-Asn-Cys]-Tle-NH2] ({DOTA}-[X1]T[Aib][Trp(6-Cl)]C[Lys(Me)][Arg(Me)][Aib]NC[Tle]-NH2; disulfide 5-10) | – |
| < 200 | < 12.6 | CC(=O)N[C@H](C(=O)NC(C)(C)C(=O)N[C@@H](Cc1ccccc1)C(=O)N[C@H]1CSSC[C@@H](C(=O)N[C@H](C(=O)N[C@@H](Cc2ccccc2)C(N)=O)C(C)(C)C)NC(=O)[C@H](CC(N)=O)NC(=O)C(C)(C)NC(=O)[C@H](CCCNC(=N)N)NC(=O)[C@H](CCCCN)NC1=O)[C@@H](C)O [PSM-0556, Ac-Thr-Aib-Phe-[Cys-Lys-Arg-Aib-Asn-Cys]-Tle-Phe-NH2] (Ac-T[Aib]FCKR[Aib]NC[Tle]F-NH2; disulfide 4-9) | – |
| 1260 to 3160 | > 501 | CCCC[C@H](NC(=O)[C@@H]1CSSC[C@H](NC(=O)[C@H](Cc2ccccc2)NC(=O)[C@H](C)NC(=O)[C@@H](NC(C)=O)[C@@H](C)O)C(=O)N[C@@H](C)C(=O)N[C@@H](CCCNC(=N)N)C(=O)N[C@@H](C)C(=O)N[C@@H](CC(N)=O)C(=O)N1)C(=O)N[C@H](C(=O)N[C@@H](CC(=O)O)C(N)=O)[C@@H](C)O [PSM-0475, Ac-Thr-Ala-Phe-[Cys-Ala-Arg-Ala-Ass-Cys]-Nle-Thr-Asp-NH2] (Ac-TAFCARANC[Nle]TD-NH2; disulfide 4-9) | – |
